Measurements published in BigSolDB 2.1.

O=C(O)c1cc(O)c(O)c(O)c1
solubility (mole fraction)
Conditions | 293.15 K | 298.15 K | 303.15 K | 308.15 K | 313.15 K | 318.15 K
in acetonitrile | 0.0274 | 0.0341 | 0.0355 | 0.0378 | 0.0391 | 0.0405
in isopropanol | 0.028 | 0.0348 | 0.0362 | 0.0386 | 0.04 | 0.0409
in n-propanol | 0.0332 | 0.0413 | 0.0429 | 0.0458 | 0.0474 | 0.0486
in water | 0.00127 | 0.00148 | 0.00204 | 0.00252 | 0.0032 | 0.0038
